In PMC12169847, “Targeted protein degradation by KLHDC2 ligands identified by high-throughput screening” (eLife, 2025):
Several values for one entry are separate records, joined by “and”; a condition that tells them apart may be missing. Identical values can stand only once.

Key:
GST-tagged KLHDC2 = molecular target: T1, GST-tagged KLHDC2 (Homo sapiens, UniProt Q9Y2U9); assay: Fluorescence polarization competition assay, KLHDC2 with TAMRA-SelK peptide (384-well); details: for Fluorescence polarization signal: KLHDC2, replicate wells
T1 sequence (Q9Y2U9 1-362): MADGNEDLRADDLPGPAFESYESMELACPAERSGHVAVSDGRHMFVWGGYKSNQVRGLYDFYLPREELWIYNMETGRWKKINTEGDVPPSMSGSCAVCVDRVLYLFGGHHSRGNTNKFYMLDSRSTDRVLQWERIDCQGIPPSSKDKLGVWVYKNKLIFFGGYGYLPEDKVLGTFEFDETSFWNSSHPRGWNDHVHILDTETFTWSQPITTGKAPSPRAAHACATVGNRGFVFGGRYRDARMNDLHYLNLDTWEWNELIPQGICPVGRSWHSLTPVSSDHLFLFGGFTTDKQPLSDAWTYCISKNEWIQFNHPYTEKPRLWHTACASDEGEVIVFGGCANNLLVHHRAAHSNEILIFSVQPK

KEAP1 Kelch domain = molecular target: T2, KEAP1 Kelch domain (Homo sapiens, UniProt Q14145); assay: Fluorescence polarization counter-screen, KEAP1 with TAMRA-NRF2 peptide; assay type: binding; details: for Fluorescence polarization signal: KEAP1, replicate wells; for inhibitory effect in the KEAP1 counter-screening assay: concentrations less than 20 µM; for EC50: in figure
T2 construct: HIS6 (N); made in house; host or cells: Escherichia coli BL21(DE3)

KLHDC2 [1] = molecular target: T3, KLHDC2 (Homo sapiens, UniProt Q9Y2U9); assay: Surface plasmon resonance direct binding to immobilized KLHDC2; details: read-out: KLHDC2 Kd (SPR)
T3 sequence (Q9Y2U9 1-362): T1 sequence (Q9Y2U9 1-362)

SelK (Homo sapiens) = SelK (Homo sapiens) (UniProt Q9Y6D0); details: cited from earlier work
KLHDC2 [2] = molecular target: KLHDC2; parameters: method as in Rusnac et al., 2018; details: ref Rusnac et al., 2018; read-out: dissociation constant, reported literature value; cited from earlier work

T2 sequence (Q14145 321-609 limits assumed): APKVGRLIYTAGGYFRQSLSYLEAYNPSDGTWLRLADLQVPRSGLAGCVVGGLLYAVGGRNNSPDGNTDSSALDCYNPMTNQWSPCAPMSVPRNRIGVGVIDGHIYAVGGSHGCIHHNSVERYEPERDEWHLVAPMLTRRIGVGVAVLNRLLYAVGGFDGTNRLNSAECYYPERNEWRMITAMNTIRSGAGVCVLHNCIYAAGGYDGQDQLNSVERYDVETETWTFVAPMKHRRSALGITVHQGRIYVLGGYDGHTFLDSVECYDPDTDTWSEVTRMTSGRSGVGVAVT
Chain of SelK (Homo sapiens) (Q9Y6D0 2-94): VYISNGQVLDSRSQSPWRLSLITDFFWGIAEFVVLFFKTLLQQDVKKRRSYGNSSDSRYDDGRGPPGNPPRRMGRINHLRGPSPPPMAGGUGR
Chain of KLHDC2 (from UniProt Q9Y2U9) (Q9Y2U9 whole entry): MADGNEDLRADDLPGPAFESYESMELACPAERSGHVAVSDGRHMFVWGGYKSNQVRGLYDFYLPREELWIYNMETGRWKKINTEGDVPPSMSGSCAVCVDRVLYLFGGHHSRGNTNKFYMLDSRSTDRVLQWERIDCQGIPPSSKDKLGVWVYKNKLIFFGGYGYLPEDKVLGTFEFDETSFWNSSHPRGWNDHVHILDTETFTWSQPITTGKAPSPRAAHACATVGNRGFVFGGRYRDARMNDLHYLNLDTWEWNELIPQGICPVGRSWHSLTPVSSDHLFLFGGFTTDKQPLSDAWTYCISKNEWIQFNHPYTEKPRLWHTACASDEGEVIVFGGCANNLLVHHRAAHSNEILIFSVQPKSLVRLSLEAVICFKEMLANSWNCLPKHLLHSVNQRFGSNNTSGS

Row | Compound | EC50 (GST-tagged KLHDC2) | IC50 (GST-tagged KLHDC2) | Fluorescence polarization signal (GST-tagged KLHDC2; 0.169351 nM) | Fluorescence polarization signal (GST-tagged KLHDC2; 0.508053 nM) | Fluorescence polarization signal (GST-tagged KLHDC2; 1.52416 nM) | Fluorescence polarization signal (GST-tagged KLHDC2; 4.57247 nM) | Fluorescence polarization signal (GST-tagged KLHDC2; 13.7174 nM) | Fluorescence polarization signal (GST-tagged KLHDC2; 41.1523 nM) | Fluorescence polarization signal (GST-tagged KLHDC2; 123.457 nM) | Fluorescence polarization signal (GST-tagged KLHDC2; 370.37 nM) | Fluorescence polarization signal (GST-tagged KLHDC2; 1111.11 nM) | Fluorescence polarization signal (GST-tagged KLHDC2; 3333.33 nM) | Fluorescence polarization signal (GST-tagged KLHDC2; 10000 nM) | Fluorescence polarization signal (KEAP1 Kelch domain; 0.169351 nM) | Fluorescence polarization signal (KEAP1 Kelch domain; 0.508053 nM) | Fluorescence polarization signal (KEAP1 Kelch domain; 1.52416 nM) | Fluorescence polarization signal (KEAP1 Kelch domain; 4.57247 nM) | Fluorescence polarization signal (KEAP1 Kelch domain; 13.7174 nM) | Fluorescence polarization signal (KEAP1 Kelch domain; 41.1523 nM) | Fluorescence polarization signal (KEAP1 Kelch domain; 123.457 nM) | also measured
1 | COc1ccc(C2CC(c3cccc(F)c3)Nc3c(C(=O)O)cc(Br)cc32)cc1OC (centres unmarked) [compound 1] | 2500 nM | 2500 nM | 0.6958 and 5.527 and -6.154 | 0.1958 and 5.927 and -4.854 | -13.1042 and -0.4734 and -3.754 | 1.996 and -1.273 and -4.954 | 2.396 and 3.527 and -0.6542 | 2.696 and 0.3828 and -2.854 | -3.504 and -5.782 and -9.454 | -4.604 and 3.827 and -2.854 | -13.7042 and -3.373 and -3.854 | -18.1042 and -20.4734 and -17.5543 | -16.9042 and -31.6734 and -31.9543 | 15.2 and 20.2 and 9.533 | 11.1 and 15.1 and 18.7 | 20.7 and 19.8 (2×) | 27.1 and 18.2 and 28.2 | 24.4 and 19.1 and 17 | 12.2 and 19.5 and 19.8 | 21.2 and 18.9 and 16.3 | Fluorescence polarization signal (KEAP1 Kelch domain; 370.37 nM): 24.1 and 16.2 and 17.6; Fluorescence polarization signal (KEAP1 Kelch domain; 1111.11 nM): 21.2 and 15.6 and 17.3; Fluorescence polarization signal (KEAP1 Kelch domain; 3333.33 nM): 8.697 and 21.8 and 19.7; Fluorescence polarization signal (KEAP1 Kelch domain; 10000 nM): 14.9 and 22.1 and 19.3; inhibitory effect in the KEAP1 counter-screening assay (KEAP1 Kelch domain): did not have an inhibitory effect; EC50 (KEAP1 Kelch domain): > 20000 nM; Kd (KLHDC2 [1]): 810 nM and 809 nM
2 | Cc1ccc(C)c(C2Nc3c(C(=O)O)cc(Cl)cc3C3C4CCC(C4)C23)c1 (centres unmarked) [compound 2] | 1270 nM | 1300 nM | -6.704 and 3.427 and -1.254 | -10.2042 and 5.927 and -5.854 | -0.3042 and -6.173 and -5.554 | 3.896 and 7.124 and -7.354 | 2.496 and 7.927 and -2.554 | 1.996 and 10.1266 and 8.192 | -3.304 and -7.673 and -6.554 | -2.804 and -8.673 and -1.254 | -10.1042 and -12.1734 and -2.854 | -28.2042 and -24.2734 and -28.2543 | -26.0042 and -23.7734 and -24.4543 | 14.7 and 20.2 and 14.4 | 10.4 and 15.1 and 11.1 | 17 and 19.8 and 20.3 | 20.3 and 18.2 and 19.6 | 18.8 and 19.1 and 18 | 21.6 and 19.5 and 32 | 24.5 and 18.9 and 12.1 | Fluorescence polarization signal (KEAP1 Kelch domain; 370.37 nM): 22.6 and 16.2 and 24.9; Fluorescence polarization signal (KEAP1 Kelch domain; 1111.11 nM): 20.2 and 15.6 and 21; Fluorescence polarization signal (KEAP1 Kelch domain; 3333.33 nM): 14.8 and 21.8 and 27; Fluorescence polarization signal (KEAP1 Kelch domain; 10000 nM): 17.3 and 22.1 and 15.2; inhibitory effect in the KEAP1 counter-screening assay (KEAP1 Kelch domain): did not have an inhibitory effect; EC50 (KEAP1 Kelch domain): > 20000 nM; Kd (KLHDC2 [1]): 440 nM and 443 nM
3 | O=C(O)c1cc(Cl)cc2c1NC(c1cccc(C(F)(F)F)c1)C1C3CCC(C3)C21 (centres unmarked) [compound 5] | 760 nM | 760 nM | -4 and 1 and 6 | -11.1 and -2.3 and 1 | -1.4 and 2 and 0 | 1 (2×) and -8.1 | 1 and -4 and 0 | 1 and -1.4 and -5.1 | 0 and -2.6 and -8.8 | -30.6 and -31 and -24.7 | -67.8 and -66.2 and -52.8 | -93.4 and -88.4 and -82.2 | -84.4 and -101.233 and -107.845 | 20 and 24 and 25 | 22 and 20 and 32 | 29 and 21 and 41 | 16 and 24 and 43 | 24 (2×) and 27 | 20 and 18 and 26 | 20 and 35 and 31 | Fluorescence polarization signal (KEAP1 Kelch domain; 370.37 nM): 31 and 22 and 25; Fluorescence polarization signal (KEAP1 Kelch domain; 1111.11 nM): 25 and 23 and 18; Fluorescence polarization signal (KEAP1 Kelch domain; 3333.33 nM): 15 and 26 and 34; Fluorescence polarization signal (KEAP1 Kelch domain; 10000 nM): 31 and 14 and 27; inhibitory effect in the KEAP1 counter-screening assay (KEAP1 Kelch domain): no inhibitory effect; EC50 (KEAP1 Kelch domain): > 20000 nM; Kd (KLHDC2 [1]): 380 nM and 379 nM
4 | KLHDC2 (from UniProt Q9Y2U9) | – | – | – | – | – | – | – | – | – | – | – | – | – | – | – | – | – | – | – | – | Kd (SelK (Homo sapiens)): 3.4 nM
5 | SelK: client protein of KLHDC2 with C-terminal diglycine degron | – | – | – | – | – | – | – | – | – | – | – | – | – | – | – | – | – | – | – | – | Kd (KLHDC2 [2]): < 10 nM
